{"source": "patent US7847065B2", "about": "“CXADRL1 polypeptides relating to human cancers” (Oncotherapy Science, Inc., priority 2002, dated 2010)", "key": {"RNF43": {"tested_on": "RNF43", "assay": "Suppression of RNF43 expression by antisense S-oligonucleotide (semi-quantitative RT-PCR), LoVo cells", "assay_type": "cell-based, human", "details": "12 hours after transfection", "experimental": "Total RNA was extracted with Qiagen RNeasy kit (Qiagen) or Trizol reagent (Life Technologies) according to the manufacturers' protocols. Ten-microgram aliquots of total RNA were reversely transcribed for single-stranded cDNAs using poly dT12-18 primer (Amersham Pharmacia Biotech) with Superscript II reverse transcriptase (Life Technologies). Each single-stranded cDNA preparation was diluted for subsequent PCR amplification by standard RT-PCR experiments carried out in 20 μl volumes of PCR buffer (TaKaRa). Amplification was conducted under following conditions: denaturing for 4 min at 94° C., followed by 20 (for GAPDH), 35 (for CXADRL1), 30 (for GCUD1), 30 (for RNF43) cycles of 94° C. for 30 s, 56° C. for 30 s, and 72° C. for 45 s, in GeneAmp PCR system 9700 (Perkin-Elmer, Foster City, Calif.). Primer sequences were; for GAPDH: forward, 5′-[…] (SEQ ID NO: 7) and reverse, 5′-[…] (SEQ ID NO: 8); for CXADRL1: forward, 5′-[…] (SEQ ID NO: 9) and reverse: 5′-TATAAACCAG CTGAGTCCAGAG (SEQ ID NO: 10); for GCUD1 forward: 5′-[…] (SEQ ID NO: 11) reverse: 5′-[…] (SEQ ID NO: 12), for RNF43 forward; 5′-[…]-3′ (SEQ ID NO: 13) and reverse; 5′-[…]-3′ (SEQ ID NO: 14).\nCells plated onto 10-cm dishes (2×10^5 cells/dish) were transfected either with plasmid, or synthetic S-oligonucleotides of CXADRL1, GCUD1, or RNF43 using LIPOFECTIN Reagent (GIBCO BRL). […]"}, "LoVo colon cancer cells": {"tested_on": "LoVo colon cancer cells", "assay": "MTT assay after transfection of S-oligonucleotides, LoVo", "assay_type": "cell-based, human", "details": "six days after transfection", "experimental": "Cells plated onto 10-cm dishes (2×10^5 cells/dish) were transfected either with plasmid, or synthetic S-oligonucleotides of CXADRL1, GCUD1, or RNF43 using LIPOFECTIN Reagent (GIBCO BRL). Then the cells were cultured with the addition of an appropriate concentration of geneticin for six to twelve days. The cells were then fixed with 100% methanol and stained by Giemsa solution. Sequences of the S-oligonucleotides were as follows:\nCells plated at a density of 5×10^5 cells/100 mm dish were transfected in triplicate with sense or antisense S-oligonucleotides designated to suppress the expression of CXADRL1, GCUD1, or RNF43. […] Subsequently, the cells were lysed by the addition of 1 ml of 0.01 N HCl/10% SDS and the absorbance of lysates was measured with ELISA plate reader at a test wavelength of 570 nm (reference, 630 nm). The cell viability was represented by the absorbance compared to that of control cells."}}, "note": "Ends that are not written are not given here."}
{"substance": "NSQPVWLCL [RNF43-721, NSQPVWLCL]", "values": [{"measurement": "Cytotoxicity of CTL clone on WiDR with anti-HLA-Class I, CD3, and CD8 antibodies", "setting": "WiDR cells", "result": "significantly inhibited"}, {"measurement": "Cytotoxic activity of CTL clone on HT29", "setting": "HT29", "result": "potent cytotoxic activity"}, {"measurement": "Cytotoxic activity of CTL clone against SNU-C4", "setting": "SNU-C4", "result": "did not show any cytotoxic activity"}, {"measurement": "Cytotoxic activity of CTL clone on irrelevant peptide pulsed TISI", "setting": "TISI cells (HLA-A24/24)", "result": "did not show any cytotoxic activity"}, {"measurement": "Cytotoxicity of CTL lines (9mer) ×2 Pep(+)", "setting": "TISI cells (HLA-A24/24)", "result": 26, "unit": "%"}, {"measurement": "Cytotoxicity of CTL lines (9mer) ×2 Pep(−)", "setting": "TISI cells (HLA-A24/24)", "result": 0, "unit": "%"}, {"measurement": "Cytotoxicity of CTL lines (9mer) ×20 Pep(+)", "setting": "TISI cells (HLA-A24/24)", "result": 68, "unit": "%"}, {"measurement": "Cytotoxicity of CTL lines (9mer) ×20 Pep(−)", "setting": "TISI cells (HLA-A24/24)", "result": 0, "unit": "%"}, {"measurement": "Cytotoxic activity of CTL clone on HCT116", "setting": "HCT116", "result": "did not show any cytotoxic activity"}, {"measurement": "Cytotoxic activity of CTL clone on WiDR", "setting": "WiDR", "result": "potent cytotoxic activity"}]}
{"substance": "5′-ACCACTCATGCTACCA-3′ (phosphorothioate, further chemistry not given here) [RNF43-AS1, antisense S-oligonucleotide]", "values": [{"measurement": "Expression of RNF43 compared to control S-oligonucleotides (RNF43-S1)", "setting": "RNF43", "result": "significantly suppressed"}, {"measurement": "Number of surviving cells compared with RNF43-S1", "setting": "LoVo colon cancer cells", "result": "significantly fewer"}]}
